In US5775329A, “Method and compounds for diagnosing coronary artery disease” (Gensia, Inc., priority 1995, dated 1998):
Entries after “also recorded” stand apart in the source; their conditions may differ. Structures can show the parent of a compound that is named as a salt.

What was measured:
[1] = target: T1, β1-adrenoreceptor (Cavia porcellus, UniProt H0W3H1); experiment: In vitro bioassay for β1-adrenergic activity (atrial rate); type: biochemical; details: guinea pig atria, 37° C., pH=7.4, approximately four atrial preparations per compound
T1 construct: the hearts were excised and placed in ice-cold oxygenated Krebs Ringer buffer; tissue Charles River Laboratories (animals); host or cells: guinea pig atria (right and left, paired)
Method: (§1) In Vitro Bioassays for β1 -, β2 - and α-Adrenoreceptor Activity
(§2) Functional evaluation of β1 -, β2 - and α-adrenoreceptor activity was performed using in vitro preparations of guinea pig atria, guinea pig trachea, and rabbit aorta, respectively (Young, et. al, Drug Dev. Res. 1994, 32, 19-28).
For the atrial assay of β1 -adrenergic activity, male Hartley guinea pigs (350-500 g; Charles River Laboratories, Wilmington, Mass.) were sacrificed by decapitation and the hearts were excised and placed in ice-cold oxygenated Krebs Ringer buffer. The atria were separated from the ventricles, leaving the right and left atria attached as a pair. A suture was placed at the apex of each atrial appendage for securing the tissue within the organ bath. The water-jacketed 25-ml organ baths were maintained at 37° C. and filled with Krebs Ringer solution aerated with 95% O2 and 5% CO2. The atrial pairs were equilibrated for at least 20 min after application of 1 g resting tension. β1 -adrenergic activity was assessed using atrial rate (beats per min) and amplitude of contraction (g tension) which were monitored at 1 and 5 min after dosing. Concentration-response curves (10^-11 -10^-4 M) were obtained by cumulative addition of drug to the bath. Following the completion of the dose response curves, isoproterenol was added to assess maximal response of each atrial preparation. EC50 values were calculated from the rate results of approximately four atrial preparations per compound.
(§3) In all experiments, tension was measured by isometric force transducers (52-9529, Harvard Apparatus, Natick, Mass.) coupled to an ink-writing recorder (Gould, Cleveland Ohio). The Krebs Ringer solution contained the following ingredients (mM): NaCl (118.1), NaHCO3 (25.0), D-glucose (11.1), KH2 PO4 (1.2), KCl (4.8), MgSO4 (1.2), CaCl2 (2.5), pH=7.4.

[2] = target: α-adrenoreceptor; experiment: In vitro bioassay for α-adrenergic activity (contraction of aortic rings); type: biochemical; details: rabbit aortic rings, propranolol pretreated, 37° C., pH=7.4, read-out: α (aorta)
Method: as §1, §2
For evaluation of α-adrenergic activity, male New Zealand white rabbits (2.5 kg) (Simunek Rabbitry, Vista, Calif.) were sacrificed by carbon dioxide inhalation and the thoracic aorta was quickly excised and placed in Krebs Ringer solution. The aorta was cut into 3-mm rings which were subsequently suspended on hooks in organ baths. The 2.5-ml water-jacketed baths were maintained at 37° C. and filled with Krebs Ringer solution aerated with 95% O2 and 5% CO2. The vascular rings were equilibrated for 1 h following the application of a resting tension of 4 g, during which time the buffer was changed at 15-min intervals. All rings were pretreated with propranolol ([…]) 10 min prior to addition of test compounds. Concentration-response curves were obtained by cumulative addition of compound to the organ bath, the concentration being increased only after maximal response to the preceding concentration was attained. After the final response was attained for each test drug, norepinephrine ([…]) was added to assess maximal contraction. Responses are expressed as a percent of the maximal contraction by norepinephrine.
as §3

[3] = tested on: heart rate (chronotropic response); experiment: Pharmacodynamics in conscious dogs during i.v. administration (chronotropic response and offset); type: in vivo, dog
Method: […] The T50 s were measured from end of infusion.
Pharmacodynamics in conscious dogs during i.v. administration
Dogs were trained to lie quietly on a table. Novel catecholamine compounds were administered via a venous catheter acutely placed in a leg vein. […] Heart rate was recorded by computer from ECG limb leads at 5 second intervals throughout the experiment. […]

[4] = tested on: heart rate; experiment: Pharmacodynamics in conscious dogs during transdermal iontophoretic administration; type: in vivo, dog; details: 10 min
Method: Pharmacodynamics in conscious dogs during transdermal iontophoretic administration
Dogs were trained to lie quietly on a table. Heart rate was monitored by ECG limb leads. Novel catecholamines were administered from a gel-filled electrode placed on the surface of the skin. A second electrode was placed on the skin to complete the electrical circuit. All compounds were delivered using a current of 0.25 mA for a period of 10 minutes. Heart rate was monitored by the ECG, and the T50 of the compound was measured as the time after termination of current required for heart rate to return 50% toward baseline rate. A "delay" time was also measured as the time required for heart rate to begin to fall, following termination of current.

[5] = target: T2, β2-adrenoreceptor (Cavia porcellus, UniProt Q8K4Z4); experiment: In vitro bioassay for β2-adrenergic activity (relaxation of precontracted tracheal rings); type: biochemical; details: guinea pig tracheal rings precontracted with carbachol, 37° C., pH=7.4, read-out: β2 (trachea)
T2 construct: the trachea was gently excised and placed in ice-cold aerated Krebs Ringer solution; from tissue; host or cells: guinea pig tracheal rings
Method: as §1, §2
For the tracheal assay of β2 -adrenergic activity, male Hartley guinea pigs (350-500 g) were sacrificed by carbon dioxide inhalation and the trachea was gently excised and placed in ice-cold aerated Krebs Ringer solution. β2 -adrenergic activity was assessed as the relaxation of rings following precontraction with carbachol. The trachea were cut into transverse rings containing two cartilage segments, and sutures were tied onto the cartilage on either side of the band of smooth muscle of each ring. The sutures were used to mount the individual rings in a 2.5-ml organ bath and to measure tension with an isometric force transducer. The water-jacketed organ baths maintained the preparation at 37° C. and were filled with Krebs Ringer solution aerated with 95% O2 and 5% CO2. The tracheal rings were equilibrated for 1 h following the application of 0.5 g resting tension. In some cases, equilibrated rings were then treated with the α2 -antagonist rauwolscine ([…]) and the β1 -antagonist atenolol ([…]) prior to precontraction with carbachol ([…]). Precontracted rings used as controls received treatments of saline only. Concentration-response curves were obtained by cumulative addition of drug to the organ bath, the concentration being increased only after the maximal relaxation to the preceding concentration was attained. After the final response was attained, isoproterenol ([…]) was added to assess maximal response for each preparation.
as §3

[6] = Table I, i.v., measured from end of infusion at highest dose 100 ng/kg/min
[7] = Table I, stable increase over baseline at highest dose (100 ng/kg/min i.v.), ascending doses
[8] = iontophoresis 0.25 mA, concentration (mM): isoproterenol 2.5, arbutamine 20, Ex 4 2, Ex 1 3, Ex 11 12, Ex 9 8, Ex 6 8
[9] = Example 13, i.v. stepwise ascending doses up to 100 ng/kg/min
[10] = Example 13, i.v., from termination of infusion (100 ng/kg/min) to 50% fall in heart rate towards baseline
[11] = Example 13, i.v., dose reached 300 ng/kg/min

T1 sequence (H0W3H1 1-470): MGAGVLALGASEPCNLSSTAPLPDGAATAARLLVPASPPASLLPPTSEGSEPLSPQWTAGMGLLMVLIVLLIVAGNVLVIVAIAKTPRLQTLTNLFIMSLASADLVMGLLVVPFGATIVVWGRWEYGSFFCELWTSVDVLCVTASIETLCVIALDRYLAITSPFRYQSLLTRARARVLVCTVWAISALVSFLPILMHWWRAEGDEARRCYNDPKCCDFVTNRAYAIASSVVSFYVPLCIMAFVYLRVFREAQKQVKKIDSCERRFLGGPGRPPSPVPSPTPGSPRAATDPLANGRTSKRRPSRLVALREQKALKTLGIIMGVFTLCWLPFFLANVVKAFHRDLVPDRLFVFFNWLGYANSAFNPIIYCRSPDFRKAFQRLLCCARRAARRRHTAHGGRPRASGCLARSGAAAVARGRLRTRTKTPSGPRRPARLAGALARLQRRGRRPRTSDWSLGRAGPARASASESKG
T2 sequence (Q8K4Z4 whole entry): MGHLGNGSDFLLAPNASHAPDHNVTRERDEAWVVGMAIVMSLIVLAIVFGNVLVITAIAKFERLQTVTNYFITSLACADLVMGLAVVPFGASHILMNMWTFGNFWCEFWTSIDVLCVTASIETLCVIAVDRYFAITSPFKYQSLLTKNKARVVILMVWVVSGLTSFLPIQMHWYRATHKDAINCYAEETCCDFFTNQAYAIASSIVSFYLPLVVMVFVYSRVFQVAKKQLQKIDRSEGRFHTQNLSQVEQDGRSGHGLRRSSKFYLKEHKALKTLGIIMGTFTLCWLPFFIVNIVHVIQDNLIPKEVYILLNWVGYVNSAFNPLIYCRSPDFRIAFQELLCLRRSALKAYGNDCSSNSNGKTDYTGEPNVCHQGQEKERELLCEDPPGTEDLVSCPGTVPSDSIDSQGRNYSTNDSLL

Row | Structure (SMILES) | EC50 [1] | EC50 [2] | T50 [3, 6] | Δ Heart Rate [3, 7] | Delay (time required for heart rate to begin to fall following termination of current) [4, 8] | T50 (time after termination of current for heart rate to return 50% toward baseline) [4, 8] | Δ Heart Rate [4, 8] | Δ Heart Rate [3, 9] | T50 [3, 10] | Δ Heart Rate [4] | EC50 [5] | T50 [3, 11] | Δ Heart Rate [3, 11] | offset time / T50 (in words) ([3]; i.v., compared with isoproterenol and arbutamine) | T50 (time required for the chronotropic response to decrease by 50%) ([3]; oxalate salt, dog studies)
1 | CC(CCC[S+](C)[O-])NC[C@H](O)c1ccc(O)c(O)c1 (stereo partly drawn) [*, 1 (R)(3,4-dihyroxyphenyl)-2-(1-methyl-4-methylsulfinylbutylamino) ethano oxalate salt] | 1.4 ± 0.3 nM | 7.83 ± 0.239 µM |  |  |  |  |  |  |  |  |  |  |  |  | 
2 | Oc1ccc(CCCCNC[C@H](O)c2ccc(O)c(O)c2)cc1 [Arbutamine, reference compound] |  |  | 7.2 ± 1.1 min | 84 ± 9 beats/min | 2.3 ± 1.4 min | 24.8 ± 2.7 min | 84 ± 5 beats/min |  |  |  |  |  |  |  | 
3 | N#CCCCNC[C@H](O)c1ccc(O)c(O)c1 [Example 1, 1-(R)-(3,4-dihydroxyphenyl)-2-(3-cyanopropylamino)ethanol] | 4.6 ± 0.7 nM | 7.5 ± 2.84 µM |  |  | 1.9 ± 0.5 min | 12.4 ± 1.3 min |  | 109 ± 5 | 6.9 ± 0.6 min | 77 ± 1.3 beats/min | 4.7 ± 1.2 nM |  |  |  | 
4 | CC(CCCC#N)NC[C@H](O)c1ccc(O)c(O)c1 (stereo partly drawn) [Example 2, 1-(R)-(3,4-dihydroxyphenyl)-2-(1-methyl-4-cyanobutylamino)ethanol] | 3.4 ± 0.4 nM | 15.6 ± 8.22 µM |  |  |  |  |  |  |  |  | 2.7 ± 0.5 nM |  |  |  | 
5 | COCCCNC[C@H](O)c1ccc(O)c(O)c1 [Example 3, 1-(R)-(3,4-dihydroxyphenyl)-2-(3-methoxy-propylamino)ethanol] | 19 ± 5.4 nM | 61.3 ± 3.82 µM |  |  |  |  |  |  |  |  | 21 ± 3 nM |  |  |  | 
6 | COCCC(C)NC[C@H](O)c1ccc(O)c(O)c1 (stereo partly drawn) [Example 4, 1-(R)-(3,4-dihydroxyphenyl)-2-(1-methyl-3-methoxypropylamino)ethanol] | 1.1 ± 0.2 nM | > 100 µM |  |  | 0.3 ± 0.1 min | 9.1 ± 0.8 min | 79 ± 8 beats/min | 98 ± 8 | 5.0 ± 0.7 min |  | 9.9 ± 1.3 nM |  |  |  | 
7 | COCCCC(C)NC[C@H](O)c1ccc(O)c(O)c1 (stereo partly drawn) [Example 5, 1-(R)-(3,4-dihydroxyphenyl)-2-(1-methyl-4-methoxybutylamino)ethanol] | 1.5 ± 0.4 nM | 51.8 ± 19.2 µM |  |  |  |  |  |  |  |  | 8.2 ± 1.6 nM |  |  |  | 
8 | C[S+]([O-])CCCNC[C@H](O)c1ccc(O)c(O)c1 (stereo partly drawn) [Example 6, 1-(R)-(3,4-dihydroxyphenyl)-2-(3-methylsulfinylpropylamino)ethanol] | 14.9 ± 3.6 nM | > 10 µM |  |  | 0.9 ± 0.5 min | 13.6 ± 2.3 min | 93 ± 6 beats/min | 93 ± 3 | 5.4 ± 1.3 min |  | 140 ± 35.3 nM |  |  |  | 
9 | C[S+]([O-])CCCCNC[C@H](O)c1ccc(O)c(O)c1 (stereo partly drawn) [Example 7, 1-(R)-(3,4-dihydroxyphenyl)-2-(4-methylsulfinylbutylamino)ethanol] | 13.3 ± 1 nM | 5.5 ± 0.456 µM |  |  |  |  |  |  |  |  | 245 ± 84.7 nM |  |  |  | 
10 | CSCCCC(C)NC[C@H](O)c1ccc(O)c(O)c1 (stereo partly drawn) [Example 8, 1-(R)-(3,4-dihydroxyphenyl)-2-(1-methyl-4-methylthiobutylamino)ethanol] | 0.6 ± 0.3 nM | 20.9 ± 9.85 µM |  |  |  |  |  |  |  |  | 4.6 ± 0.2 nM |  |  |  | 
11 | CSCCCCNC[C@H](O)c1ccc(O)c(O)c1 [Example 9, 1-(R)-(3,4-dihydroxyphenyl)-2-(4-methylthiobutylamino)ethanol] | 2.9 ± 0.6 nM | 1.4 ± 0.082 µM |  |  | 0.6 ± 0.6 min | 9.3 ± 0.5 min | 82 ± 9 beats/min |  |  |  | 20 ± 3.4 nM | 3.6 ± 0.34 min | 93 ± 6 |  | 
12 | CCSCCCNC[C@H](O)c1ccc(O)c(O)c1 [Example 10, 1-(R)-(3,4-dihydroxyphenyl)-2-(3-ethylthiopropylamino)ethanol] | 4.8 ± 0.7 nM | > 10 µM |  |  |  |  |  |  |  |  | 124 ± 13.6 nM |  |  |  | 
13 | CSCCCNC[C@H](O)c1ccc(O)c(O)c1 [Example 11, 1-(R)-(3,4-dihydroxyphenyl)-2-(3-methylthiopropylamino)ethanol] | 9.7 ± 2 nM | 88.3 ± 5.66 µM | 3.6 ± 0.3 min | 109 ± 4 beats/min | 0.8 ± 0.2 min | 12.7 ± 3.6 min | 89 ± 7 beats/min | 109 ± 4 | 3.6 ± 0.2 min |  | 16 ± 1.2 nM |  |  | shorter than for both isoproterenol and arbutamine; also recorded: substantially shorter T50 than isoproterenol and arbutamine | 3.6 min
14 | CC(C)NCC(O)c1ccc(O)c(O)c1 (centres unmarked) [Isoproterenol, reference compound] |  |  | 5.5 ± 1.0 min | 103 ± 12 beats/min | 1.2 ± 0.5 min | 12.2 ± 1.9 min | 80 ± 11 beats/min |  |  |  |  |  |  |  | 
